Consider 9 molecules from ChEMBL document CHEMBL1141793, “Antioxidant constituents of the aerial parts of Globularia alypum growing in Morocco” (J Nat Prod, 2005).

For orientation: IC50 means the point on the concentration scale where inhibition reaches its midpoint.

This experiment deals with Radical scavenging activity. Kind of experiment: Antioxidant activity assessed as DPPH free radical scavenging activity after 30 mins by spectrophotometric assay. For orientation: The DPPH test is a chemical assay of radical scavenging.
Turning to `O=C(/C=C/c1ccc(O)cc1)OC[C@H]1O[C@@H](OCCc2ccc(O)c(O)c2)[C@H](O)[C@@H](O)[C@@H]1O`, the IC50 was determined as 18 µM.

With `C[C@@H]1O[C@@H](OC[C@H]2O[C@@H](OCCc3ccc(O)c(O)c3)[C@H](O)[C@@H](O)[C@@H]2OC(=O)/C=C/c2ccc(O)c(O)c2)[C@H](O)[C@H](O)[C@H]1O` [FORSYTHIASIDE], the IC50 was 21 µM.

On to `Cc1cc(C(C)(C)C)c(O)c(C(C)(C)C)c1` [BUTYLATED HYDROXYTOLUENE], for which the concentration for half-maximal inhibition (IC50) turned out to be 40 µM.

With `O=c1cc(-c2ccc(O)c(O)c2)oc2cc(O[C@@H]3O[C@H](CO)[C@@H](O)[C@H](O)[C@H]3O)c(O)c(O)c12`, the concentration for half-maximal inhibition (IC50) worked out at 11 µM.

Take `O=c1cc(-c2ccc(O)c(O)c2)oc2cc(O[C@@H]3O[C@H](CO)[C@@H](O)[C@H](O)[C@H]3O[C@@H]3O[C@H](CO)[C@@H](O)[C@H](O)[C@H]3O)cc(O)c12`: the IC50 is 12 µM.

Consider `C[C@@H]1O[C@@H](O[C@@H]2[C@@H](O)[C@H](OCCc3ccc(O)c(O)c3)O[C@H](COC(=O)/C=C/c3ccc(O)c(O)c3)[C@H]2O)[C@H](O)[C@H](O)[C@H]1O` [ISOACTEOSIDE], for which the IC50 was determined as 20 µM.

For the molecule `O=c1cc(-c2ccc(O)c(O)c2)oc2cc(O[C@@H]3O[C@H](CO)[C@@H](O)[C@H](O[C@@H]4O[C@H](CO)[C@@H](O)[C@H](O)[C@H]4O)[C@H]3O)c(O)c(O)c12`, the half-maximal inhibitory concentration (IC50) came to 8 µM.

For `O=C1C[C@@H](c2ccc(O)c(O)c2)Oc2cc(O[C@@H]3O[C@H](CO)[C@@H](O)[C@H](O)[C@H]3O[C@@H]3O[C@H](CO)[C@@H](O)[C@H](O)[C@H]3O)cc(O)c21`, the half-maximal inhibitory concentration (IC50) was 12 µM.

With `C[C@@H]1O[C@@H](O[C@@H]2[C@@H](O)[C@H](OCCc3ccc(O)c(O)c3)O[C@H](CO)[C@H]2OC(=O)/C=C/c2ccc(O)c(O)c2)[C@H](O)[C@H](O)[C@H]1O` [ACETOSIDE], the IC50 stood at 20 µM.
